Where a name gives a salt, the structure may show the parent alone. Read-outs that look alike come from different tables or passages of the source.
Tests used:
[1] = Toxicity to normal cells (SRB); assay type: cell-based, human; conditions: human, Hs27 fibroblasts (normal cell line)
Outline: (§1)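 GI50 values come from growth equations comparing treated, untreated and medium-only wells. Fibroblasts (Hs27, Balb/c3t3) got 72 h compound exposure with SRB read-out at 540 nm after TCA fixing. MDA-MB-231 got 120 h with MTS at 490 nm, across 10 μM˜0.1 nM.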

[2] = Toxicity to normal cells (SRB); assay type: cell-based, mouse; conditions: mouse, Balb/c3t3 fibroblasts (normal cell line), read-out: BalB/C (GI50)
Protocol: MDA-MB-231 breast cancer cell lines (ATCC #HTB-26) and BxPC-3 pancreas cancer cell lines (ATCC #CRL 1687), which have been reported to express XIAP, were obtained from ATCC (American type culture collection; Rockville, Md.). MDA-MB-231 cell lines were incubated in L-15 medium supplemented with 10% FBS and 1% penicillin/streptomycin (Gibco BRL) at a T-75 cm^2 growth flask. In addition, BxPC-3 cell lines were incubated in RPMI medium supplemented with 10% FBS and 1% penicillin/streptomycin. For experiments of toxicity to normal cells, fibroblasts Hs27 (ATCC #CRL 1634) and Balb/c3t3 (ATCC #CCL 163) were used. The various cell lines were transferred into 96-well plates at a density of 3,000˜5,000 cells/100 μL, and cultured for 24 hours under conditions of 37° C., 5% CO2, 95% air, and 100% relative humidity (MDA-MB-231 cells were cultured under atmospheric conditions). The cells were treated with 10 μM˜0.1 nM of test compounds, and MDA-MB-231, BxPC-3, and normal cell lines were cultured for 120, 96, and 72 hours, respectively.
Cell viabilities of MDA-MB-231 cell lines were measured at an absorbance of 490 nm using CellTiter 96™ AQueous One Solution Cell proliferation Assay (MTS, Promega), and cell viabilities of BxPC-3 and normal cell lines were measured by fixing cells with 10% TCA (trichloroacetic acid), staining with SRB (sulforhodamine B), and measuring at 540 nm. From the values, GI50 values in which test compounds reduce the growth of cancer cells by 50% were calculated. The growth rates of cancer cells were calculated from following Equation 1 or 2. [(Ti−Tz)/(C−Tz)]×100 (for Ti>=Tz) [Equation 1] [(Ti−Tz)/Tz]×100 (for Ti<Tz) [Equation 2] In Equations 1 and 2, Tz refers to a density of untreated cells, which is an absorbance in 0% cell growth groups. C refers to a density of cells cultured by adding only medium, and Ti refers to a density of cells treated with test compounds.
GI50 value is the concentration of a test compound when the value of Equation 1 is 50, which indicates the concentration of test compound required to inhibit the cancer cells by 50%. On each measurement, test compounds were compared with a control.
The activity value of each compound (GI50 value) was shown in Table 5, and an IAP antagonist was used as a control.
In the activity measurement on MDA-MB-231 breast cancer cell lines, the values were represented as “***” for 100 nM or less, “**” for over 100 nM to below 1,000 nM, and “*” for 1,000 nM or more. In the measurement on normal cell lines, Balb/C and Hs27, the values were represented as “+++” for 10,000 nM or more, “++” for over 5,000 nM to below 10,000 nM, and “+” for 5,000 nM or less.

[3] = system: MDA-MB-231 breast cancer cell lines; experiment: Evaluation of inhibition on cell growth (MTS); assay type: cell-based; conditions: Homo sapiens, MDA-MB-231, 120 hours
Outline: as §1

| Structure (SMILES) | GI50 at 72 h [1] | GI50 at 72 h [2] | GI50 [3] |
| --- | --- | --- | --- |
| CN[C@@H](C)C(=O)N[C@H](C(=O)N1CCC[C@H]1C(=O)Nc1cc2c(Nc3cccc(F)c3F)ncnc2cc1OC)C(C)(C)C [Example 42, (S)—N-(4-(2,3-difluorophenylamino)-7-methoxyquinazolin-6-yl)-1-((S)-3,3-dimethyl-2-((S)-2-(methylamino)propanamido)butanoyl)pyrrolidine-2-carboxamide hydrochloride] | > 10 µM | > 10 µM | ≤ 0.1 µM |
| CN[C@@H](C)C(=O)N[C@H](C(=O)N1CCC[C@H]1C(=O)Nc1cc2c(Nc3ccc(F)c(Cl)c3F)ncnc2cc1O)C(C)(C)C [Example 43, (S)—N-(4-(3-chloro-2,4-difluorophenylamino)-7-hydroxyquinazolin-6-yl)-1-((S)-3,3-dimethyl-2-((S)-2-(methylamino)propanamido)butanoyl)pyrrolidine-2-carboxamide] | > 10 µM | > 10 µM | ≤ 0.1 µM |
| C#CCO[C@H](C)[C@H](NC(=O)[C@H](C)NC)C(=O)N1CCC[C@H]1C(=O)Nc1cc2c(Nc3ccc(F)c(Cl)c3F)ncnc2cc1OC [Example 45, (S)—N-(4-(3-chloro-2,4-difluorophenylamino)-7-methoxyquinazolin-6-yl)-1-((2S,3R)-2-((S)-2-(methylamino)propanamido)-3-(prop-2-ynyloxy)butanoyl)pyrrolidine-2-carboxamide hydrochloride] | > 10 µM | > 10 µM | ≤ 0.1 µM |
| CN[C@@H](C)C(=O)N[C@H](C(=O)N1C[C@H](OCc2ccccc2)C[C@H]1C(=O)Nc1cc2c(Nc3ccc(F)c(Cl)c3F)ncnc2cc1OC)C(C)(C)C [Example 46, (2S,4R)-4-(benzyloxy)-N-(4-(3-chloro-2,4-difluorophenylamino)-7-methoxyquinazolin-6-yl)-1-((S)-3,3-dimethyl-2-((S)-2-(methylamino)propanamido)butanoyl)pyrrolidine-2-carboxamide hydrochloride] | > 10 µM | > 10 µM | ≤ 0.1 µM |
| CN[C@@H](C)C(=O)N[C@H](C(=O)N1CCC[C@H]1C(=O)Nc1cc2c(Nc3ccccc3N3CCOCC3)ncnc2cc1OC)C(C)(C)C [Example 47, (S)-1-((S)-3,3-dimethyl-2-((S)-2-(methylamino)propanamido)butanoyl)-N-(7-methoxy-4-(2-morpholinophenylamino)quinazolin-6-yl)pyrrolidine-2-carboxamide] | > 10 µM | > 10 µM | ≤ 0.1 µM |
| CN[C@@H](C)C(=O)N[C@H](C(=O)N1CCC[C@H]1C(=O)Nc1ccc2ncnc(Nc3ccc(F)c(Cl)c3F)c2c1)C(C)(C)C [Example 48, (S)—N-(4-(3-chloro-2,4-difluorophenylamino)quinazolin-6-yl)-1-((S)-3,3-dimethyl-2-((S)-2-(methylamino)propanamido)butanoyl)pyrrolidine-2-carboxamide] | > 10 µM | > 10 µM | ≤ 0.1 µM |
| CN[C@@H](C)C(=O)N[C@H](C(=O)N1CCC[C@H]1C(=O)Nc1cc2c(Nc3ccc(OC)cc3)ncnc2cc1OC)C(C)(C)C [Example 49, (S)-1-((S)-3,3-dimethyl-2-((S)-2-(methylamino)propanamido)butanoyl)-N-(7-methoxy-4-(4-methoxyphenylamino)quinazolin-6-yl)pyrrolidine-2-carboxamide hydrochloride] | > 10 µM | > 10 µM | ≤ 0.1 µM |
| CN[C@@H](C)C(=O)N[C@H](C(=O)N1CCC[C@H]1C(=O)Nc1cc2c(N3CCCc4ccccc43)ncnc2cc1OC)C(C)(C)C [Example 50, (S)—N-(4-(3,4-dihydroquinoline-1(2H)-yl)-7-methoxyquinazolin-6-yl)-1-((S)-3,3-dimethyl-2-((S)-2-(methylamino)propanamido)butanoyl)pyrrolidine-2-carboxamide hydrochloride] | > 10 µM | > 10 µM | ≤ 0.1 µM |
| CN[C@@H](C)C(=O)N[C@H](C(=O)N1CCC[C@H]1C(=O)Nc1cc2c(Nc3c(Cl)ccc4c3OCO4)ncnc2cc1OC)C(C)(C)C [Example 51, (S)—N-(4-(5-chlorobenzo[d][1,3]dioxol-4-ylamino)-7-methoxyquinazolin-6-yl)-1-((S)-3,3-dimethyl-2-((S)-2-(methylamino)propanamido)butanoyl)pyrrolidine-2-carboxamide hydrochloride] | > 10 µM | > 10 µM | ≤ 0.1 µM |
| CN[C@@H](C)C(=O)N[C@H](C(=O)N1CCC[C@H]1C(=O)Nc1cc2c(Nc3ccc4c(c3)CCC4)ncnc2cc1OC)C(C)(C)C [Example 52, (S)—N-(4-(2,3-dihydro-1H-inden-5-ylamino)-7-methoxyquinazolin-6-yl)-1-((S)-3,3-dimethyl-2-((S)-2-(methylamino)propanamido)butanoyl)pyrrolidine-2-carboxamide hydrochloride] | > 10 µM | > 10 µM | ≤ 0.1 µM |
| CN[C@@H](C)C(=O)N[C@H](C(=O)N1CCC[C@H]1C(=O)Nc1cc2c(Nc3ccc4ncccc4c3)ncnc2cc1OC)C(C)(C)C [Example 53, (S)-1-((S)-3,3-dimethyl-2-((S)-2-(methylamino)propanamido)butanoyl)-N-(7-methoxy-4-(quinoline-6-ylamino)quinazolin-6-yl)pyrrolidine-2-carboxamide] | > 10 µM | > 10 µM | ≤ 0.1 µM |
| CN[C@@H](C)C(=O)N[C@H](C(=O)N1CCC[C@H]1C(=O)Nc1cc2c(Nc3ccc4[nH]ncc4c3)ncnc2cc1OC)C(C)(C)C [Example 54, (S)—N-(4-(1H-indazol-5-ylamino)-7-methoxyquinazolin-6-yl)-1-((S)-3,3-dimethyl-2-((S)-2-(methylamino)propanamido)butanoyl)pyrrolidine-2-carboxamide] | > 10 µM | > 10 µM | ≤ 0.1 µM |
| CN[C@@H](C)C(=O)N[C@H](C(=O)N1CCC[C@H]1C(=O)Nc1cc2c(Nc3ccc(F)cc3)ncnc2cc1OC)C(C)(C)C [Example 55, (S)-1-((S)-3,3-dimethyl-2-((S)-2-(methylamino)propanamido)butanoyl)-N-(4-(4-fluorophenylamino)-7-methoxyquinazolin-6-yl)pyrrolidine-2-carboxamide] | > 10 µM | > 10 µM | ≤ 0.1 µM |
| CN[C@@H](C)C(=O)N[C@H](C(=O)N1CCC[C@H]1C(=O)Nc1cc2c(Nc3ccc(Cl)cc3)ncnc2cc1OC)C(C)(C)C [Example 56, (S)—N-(4-(4-chlorophenylamino)-7-methoxyquinazolin-6-yl)-1-((S)-3,3-dimethyl-2-((S)-2-(methylamino)propanamido)butanoyl)pyrrolidine-2-carboxamide] | > 10 µM | > 10 µM | ≤ 0.1 µM |
| CN[C@@H](C)C(=O)N[C@H](C(=O)N1CCC[C@H]1C(=O)Nc1cc2c(Nc3cccc(OC)c3)ncnc2cc1OC)C(C)(C)C [Example 57, (S)-1-((S)-3,3-dimethyl-2-((S)-2-(methylamino)propanamido)butanoyl)-N-(7-methoxy-4-(3-methoxyphenylamino)quinazolin-6-yl)pyrrolidine-2-carboxamide hydrochloride] | > 10 µM | > 10 µM | ≤ 0.1 µM |

— patent US8835458B2 (Hanmi Science Co., Ltd, priority 2010, dated 2014)
